Drawing on US20250228239A1, “MOLECULES HAVING PESTICIDAL UTILITY, AND INTERMEDIATES, COMPOSITIONS, AND PROCESSES, RELATED THERETO” (priority 2024, published 2025), this text covers pest or weed control and mortality for 20 compounds.

Like-named read-outs stand apart in the source and are kept apart here.

The test system of test [1] is Beet Armyworm (Spodoptera exigua, LAPHEG). The experiment in a line: Bioassays on Beet Armyworm (BAW), 128-well diet tray assay. The format is in vivo. The following applies: Spodoptera exigua. In a few lines:
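Eight diet wells per compound were treated at 50 μg/cm^2 (acetone-water 90:10), dried, then infested with 1–5 second-instar larvae each. After five to seven days at 25 °C under 14:10 photoperiod, mortality was scored and averaged across wells.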

The test system of test [2] is Cabbage Looper (Trichoplusia ni, TRIPNI). The experiment in a line: Bioassays on Cabbage Looper (CL), 128-well diet tray assay. The test is classed as in vivo. The following applies: Trichoplusia ni. In a few lines:
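Each of eight wells receives artificial diet treated at 50 μg/cm^2 with the test molecule, then one to five second-instar larvae. Incubation runs five to seven days at 25° C with a 14:10 light-dark cycle under vented covers. Mortality is scored per well as a percentage and averaged.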

Where [3] appears, read: Beet Armyworm, rating class, read-out: BAW.
[4] abbreviates: Cabbage Looper, rating class, read-out: CL.
Setting [5] is: Table ABC: Biological Results, species BAW, read-out: BAW.
Setting [6] is: Table ABC: Biological Results, species CL, read-out: CL.
Setting [7] is: Beet Armyworm, Table ABC / ABC-DP rating, read-out: BAW rating.
Where [8] appears, read: Cabbage Looper, Table ABC / ABC-DP rating, read-out: CL rating.

`O=C(Nc1ccc(F)cc1F)c1cc(NC(=O)[C@@H]2[C@@H](c3ccc(F)c(F)c3)C2(Cl)Cl)ccc1Cl` [F1751, 2-Chloro-5-((1S,3S)-2,2-dichloro-3-(3,4-difluorophenyl)cyclopropane-1-carboxamido)-N-(2,4-difluorophenyl)benzamide]: the pest or weed control at 50 µg/cm2 in test [1] (setting [3]) and in test [2] (setting [4]) was 50 to 100% throughout.

For the compound `Cc1cc(NC(=O)CCCN)ccc1NC(=O)c1cc(NC(=O)[C@H]2[C@H](c3ccc(Cl)c(Cl)c3)C2(Cl)Cl)ccc1Cl` (relative stereo) [F1202, trans-N-(4-(4-Aminobutanamido)-2-methylphenyl)-2-chloro-5-(2,2-dichloro-3-(3,4-dichlorophenyl)cyclopropane-1-carboxamido)benzamide], the pest or weed control at 50 µg/cm2 in test [1] (setting [5]) and in test [2] (setting [6]) was 50 to 100% throughout.

`O=C(NNC(=O)C1CC1(F)F)c1cc(NC(=O)[C@H]2[C@H](c3cc(Cl)cc(Cl)c3)C2(Cl)Cl)ccc1Cl` (relative stereo) [F2517, trans-2,2-Dichloro-N-(4-chloro-3-(2-(2,2-difluorocyclopropane-1-carbonyl)hydrazine-1-carbonyl)phenyl)-3-(3,5-dichlorophenyl)cyclopropane-1-carboxamide]: the pest or weed control at 50 µg/cm2 in test [1] (setting [7]) and in test [2] (setting [8]) was 50 to 100% throughout.

Consider `O=C(Nc1c(F)ccc(NC(=O)C(F)(F)F)c1F)c1cc(NC(=O)[C@H]2[C@H](c3ccc(F)c(C(F)(F)F)c3)C2(Cl)Cl)cc(F)c1F` [F1574, 5-((1R,3R)-2,2-Dichloro-3-(4-fluoro-3-(trifluoromethyl)phenyl)cyclopropane-1-carboxamido)-N-(2,6-difluoro-3-(2,2,2-trifluoroacetamido)phenyl)-2,3-difluorobenzamide], for which the pest or weed control at 50 µg/cm2 in test [1] (setting [3]) and in test [2] (setting [4]) was 50 to 100% in each case.

Take `CC(NNC(=O)c1cc(NC(=O)[C@H]2[C@H](c3cc(Cl)cc(Cl)c3)C2(Cl)Cl)ccc1Cl)c1ccccc1` (relative stereo) [F2548, trans-2,2-Dichloro-N-(4-chloro-3-(2-(1-phenylethyl)hydrazine-1-carbonyl)phenyl)-3-(3,5-dichlorophenyl)cyclopropane-1-carboxamide]: the pest or weed control at 50 µg/cm2 in test [1] (setting [7]) and in test [2] (setting [8]) was 50 to 100% in each case.

Regarding `CN(C)CC(=O)N(C)NC(=O)c1cc(NC(=O)[C@H]2[C@H](c3cc(Cl)cc(Cl)c3)C2(Cl)Cl)ccc1Cl` (relative stereo) [F2526, trans-2,2-Dichloro-N-(4-chloro-3-(2-(dimethylglycyl)-2-methylhydrazine-1-carbonyl)phenyl)-3-(3,5-dichlorophenyl)cyclopropane-1-carboxamide], the pest or weed control at 50 µg/cm2 in test [1] (setting [7]) and in test [2] (setting [8]) was 50 to 100% in each case.

`O=C(Nc1c(F)ccc(NC(=O)C(F)(F)F)c1F)c1cc(NC(=O)[C@H]2[C@H](c3cc(Cl)c(Cl)c(Cl)c3)C2(Cl)Cl)cc(F)c1Cl` [F1342, 2-Chloro-5-((1R,3R)-2,2-dichloro-3-(3,4,5-trichlorophenyl)cyclopropane-1-carboxamido)-N-(2,6-difluoro-3-(2,2,2-trifluoroacetamido)phenyl)-3-fluorobenzamide]: the pest or weed control at 50 µg/cm2 in test [1] (setting [5]) and in test [2] (setting [6]) was 50 to 100% each time.

Regarding `CCO[C@H](C)C(=O)Nc1c(F)ccc(NC(=O)c2cc(NC(=O)[C@H]3[C@H](c4ccc(Cl)c(Cl)c4)C3(Cl)Cl)ccc2Cl)c1F` [F1734, 2-Chloro-5-((1R,3R)-2,2-dichloro-3-(3,4-dichlorophenyl)cyclopropane-1-carboxamido)-N-(3-((R)-2-ethoxypropanamido)-2,4-difluorophenyl)benzamide], the pest or weed control at 50 µg/cm2 in test [1] (setting [3]) and in test [2] (setting [4]) was 50 to 100% each time.

As to `O=C(Nc1c(F)ccc(NC(=O)C(F)(F)F)c1F)c1cc(NC(=O)[C@H]2[C@H](c3cc(Cl)cc(Cl)c3)C2(Cl)Cl)cc(F)c1Cl` [F1340, 2-Chloro-5-((1R,3R)-2,2-dichloro-3-(3,5-dichlorophenyl)cyclopropane-1-carboxamido)-N-(2,6-difluoro-3-(2,2,2-trifluoroacetamido)phenyl)-3-fluorobenzamide], the pest or weed control at 50 µg/cm2 in test [1] (setting [5]) and in test [2] (setting [6]) was 50 to 100% each time.

Turning to `Cc1cc(NC(=O)[C@H]2[C@H](c3cc(Cl)c(Cl)c(Cl)c3)C2(Cl)Cl)cc(C(=O)Nc2ccc(F)c(N)c2F)c1Cl` [F1449, N-(3-Amino-2,4-difluorophenyl)-2-chloro-5-((1R,3R)-2,2-dichloro-3-(3,4,5-trichlorophenyl)cyclopropane-1-carboxamido)-3-methylbenzamide], the pest or weed control at 50 µg/cm2 in test [1] (setting [3]) and in test [2] (setting [4]) was 50 to 100% in each case.

Turning to `Nc1ccc(F)c(NC(=O)c2cc(NC(=O)[C@H]3[C@H](c4cc(Cl)c(Cl)c(Cl)c4)C3(Cl)Cl)cc(F)c2F)c1F` [F1770, N-(3-Amino-2,6-difluorophenyl)-5-((1R,3R)-2,2-dichloro-3-(3,4,5-trichlorophenyl)cyclopropane-1-carboxamido)-2,3-difluorobenzamide], the pest or weed control at 50 µg/cm2 in test [1] (setting [7]) and in test [2] (setting [8]) was 50 to 100% throughout.

Regarding `CC(=O)Nc1c(F)ccc(NC(=O)c2cc(NC(=O)[C@H]3[C@H](c4cc(Cl)c(Cl)c(Cl)c4)C3(Cl)Cl)cc(C)c2Cl)c1F` [F1544, N-(3-Acetamido-2,4-difluorophenyl)-2-chloro-5-((1R,3R)-2,2-dichloro-3-(3,4,5-trichlorophenyl)cyclopropane-1-carboxamido)-3-methylbenzamide], the pest or weed control at 50 µg/cm2 in test [1] (setting [3]) and in test [2] (setting [4]) was 50 to 100% each time.

For the compound `O=C(Nc1ccc(F)c(NC(=O)[C@H]2CCCN2)c1F)c1cc(NC(=O)[C@H]2[C@H](c3ccc(Cl)c(Cl)c3)C2(Cl)Cl)ccc1Cl` [F1663, (R)—N-(3-(2-Chloro-5-((1R,3R)-2,2-dichloro-3-(3,4-dichlorophenyl)cyclopropane-1-carboxamido)benzamido)-2,6-difluorophenyl)pyrrolidine-2-carboxamide], the pest or weed control at 50 µg/cm2 in test [1] (setting [3]) and in test [2] (setting [4]) was 50 to 100% in each case.

As to `Nc1cc(F)ccc1NC(=O)c1cc(NC(=O)[C@H]2[C@H](c3ccc(Cl)c(Cl)c3)C2(Cl)Cl)ccc1Cl` (relative stereo) [DP6, trans-N-(2-amino-4-fluorophenyl)-2-chloro-5-(2,2-dichloro-3-(3,4-dichlorophenyl)cyclopropane-1-carboxamido)benzamide], the mortality (in general, the share of the test organisms that died) at 50 µg/cm2 in test [1] (168 h, second instar larvae, 50 μg/cm^2 of test molecule on artificial diet, 25° C., five to seven days, average of eight wells, read-out: BAW % Control (or Mortality) rating) was 50 to 100%; in test [2] (168 h, second instar larvae, 50 μg/cm^2 of test molecule on artificial diet, 25° C., five to seven days, average of eight wells, read-out: CL % Control (or Mortality) rating), 50 to 100%. For the same compound, the pest or weed control at 50 µg/cm2 in test [1] (setting [7]) and in test [2] (setting [8]) was 50 to 100% in each case.

With `O=C(Nc1ccc(Br)cc1F)c1cc(NC(=O)[C@H]2[C@H](c3cc(Cl)cc(Cl)c3)C2(Cl)Cl)ccc1Cl` (relative stereo) [F1306, trans-N-(4-Bromo-2-fluorophenyl)-2-chloro-5-(2,2-dichloro-3-(3,5-dichlorophenyl)cyclopropane-1-carboxamido)benzamide], the pest or weed control at 50 µg/cm2 in test [1] (setting [5]) and in test [2] (setting [6]) was 50 to 100% each time.

Turning to `C=CCC(=O)Nc1ccc(F)c(NC(=O)c2cc(NC(=O)[C@H]3[C@H](c4cc(Cl)c(Cl)c(Cl)c4)C3(Cl)Cl)cc(F)c2F)c1F` [F1875, N-(3-(But-3-enamido)-2,6-difluorophenyl)-5-((1R,3R)-2,2-dichloro-3-(3,4,5-trichlorophenyl)cyclopropane-1-carboxamido)-2,3-difluorobenzamide], the pest or weed control at 50 µg/cm2 in test [1] (setting [7]) and in test [2] (setting [8]) was 50 to 100% throughout.

Regarding `Nc1ccc(F)c(NC(=O)c2cc(NC(=O)[C@H]3[C@H](c4cc(Cl)cc(Cl)c4)C3(Cl)Cl)cc(F)c2Cl)c1F` [F1336, N-(3-Amino-2,6-difluorophenyl)-2-chloro-5-((1R,3R)-2,2-dichloro-3-(3,5-dichlorophenyl)cyclopropane-1-carboxamido)-3-fluorobenzamide], the pest or weed control at 50 µg/cm2 in test [1] (setting [5]) and in test [2] (setting [6]) was 50 to 100% throughout.

As to `C=CC(=O)Nc1c(F)ccc(NC(=O)c2cc(NC(=O)[C@H]3[C@H](c4ccc(F)c(C(F)(F)F)c4)C3(Cl)Cl)ccc2Cl)c1F` [F1877, N-(3-Acrylamido-2,4-difluorophenyl)-2-chloro-5-((1R,3R)-2,2-dichloro-3-(4-fluoro-3-(trifluoromethyl)phenyl)cyclopropane-1-carboxamido)benzamide], the pest or weed control at 50 µg/cm2 in test [1] (setting [7]) and in test [2] (setting [8]) was 50 to 100% each time.

Regarding `CN(C(=O)c1c(Cl)ccc(NC(=O)[C@H]2[C@H](c3ccc(F)c(Cl)c3)C2(Cl)Cl)c1Cl)c1ccc(N)cc1` (relative stereo) [F1106, trans-N-(4-Aminophenyl)-2,6-dichloro-3-(2,2-dichloro-3-(3-chloro-4-fluorophenyl)cyclopropane-1-carboxamido)-N-methylbenzamide], the pest or weed control at 50 µg/cm2 in test [1] (setting [5]) lay in the range of 50 to 100%; in test [2] (setting [6]), 0 to 50%.

As for `O=C(Nc1cccc(F)c1[N+](=O)[O-])c1cc(NC(=O)[C@H]2[C@H](c3ccc(F)c(Cl)c3)C2(Cl)Cl)ccc1Cl` [F1081, 2-Chloro-5-((1R,3R)-2,2-dichloro-3-(3-chloro-4-fluorophenyl)cyclopropane-1-carboxamido)-N-(3-fluoro-2-nitrophenyl)benzamide], the pest or weed control at 50 µg/cm2 in test [1] (setting [5]) and in test [2] (setting [6]) was 50 to 100% each time.
